# In US6664406B1, “Nervonic acid derivatives, their preparation and use” (Croda International PLC, priority 1999, dated 2003):
# Where two headings read alike, the source gives them in different places.
# Legend:
# [1] = rats and mice, up to 10 g/kg; reported in WO 96/34846; cited from earlier work
# [2] = system: CREAE in the Biozzi mouse model; assay: NA:NA and NA:GLA in Miglyol 810 in CREAE (Example 8); assay type: in vivo
# Experimental: (§1) Male Biozzi mice weighing 30-35 g were injected in each flank with 0.15 mL of an emulsion containing lyophilised mouse spinal cord, phosphate buffered saline and incomplete Freund's adjuvant supplemented with Mycobacterium butyricum and Mycobacterium tuberculosis H37Ra.
# (§2) 1: Partial Flaccid Tail (PFT), 2: Complete Flaccid Tail (CFT), 3: Impaired Righting Reflex (IRR), 4: Ataxic Gait (AG), 5: Hind Limb Hypotonia (HLH), 6: Partial Hind Limb Paralysis (PHLP), 7: Complete Hind Limb Paralysis (CHLP), 8: Moribund (M), 9: Dead (D).
# Therefore, Miglyol appeared well-suited for use as a vehicle in subsequent studies to determine the efficacy of compounds in CREAE. Therefore, using Miglyol 810 as the new vehicle, prophylactic effects of NA:NA and NA:GLA were re-assessed on CREAE in the Biozzi mouse model (90% dilution, 1000 mg/kg/day, up to 43 days PI).
# [3] = Miscibility / physical state of oral compositions in vehicle; assay type: physicochemical; conditions: room temperature (about 20° C.)
# From the text: Formulations of the present invention suitable for oral administration may be in the form of discrete units such as capsules, cachets, tablets or lozenges, each containing a predetermined amount of the active ingredient; in the form of a powder or granules; in the form of a solution or a suspension in an aqueous liquid or non-aqueous liquid; or in the form of an oil-in-water emulsion or a water-in-oil emulsion. The active ingredient may also be in the form of a bolus, electuary or paste. For such formulations, a range of dilutions of the active ingredient in the vehicle is suitable, such as from 1% to 99%, preferably 5% to 50% and more preferably 10% to 25% dilution. Depending upon the level of dilution, the formulation will be either a liquid at room temperature (in the region of about 20° C.) or a low-melting solid.
# [4] = system: neurological EAE in the Lewis rat; conditions: for Number diseased/total: 5 days prior to inoculation and 25 days PI
# Experimental: Male Lewis rats, weighing 230-280 g on the day of inoculation, were injected in each rear footpad with 0.1 ml of an emulsion containing equal parts of guinea pig spinal cord; phosphate buffered saline (PBS) and incomplete Freund's adjuvant supplemented with 10 mg/ml Mycobacterium tuberculosis H37Ra.
# Animals were weighed daily and assessed for neurological disease from day 7 post-inoculation (PI). Rats displaying symptoms of EAE were scored as follows: 1: flaccid tail (FT), 2: hind limb hypotonia (HLH), 3: partial hind limb paralysis (PHLP), 4: complete hind limb paralysis (CHLP), 5: moribund or dead.
# NA:GLA (neat oil) was orally administered 5 days prior to inoculation and continued for 25 days PI, at a dose of 750 mg/kg body weight/day and 1000 mg/kg body weight/day. NA:DHA (neat oil) was given by an identical dosing regime at a dose of 500 mg/kg body weight/day. Control-sensitised animals received PBS vehicle or were undosed. Undosed, vehicle and low dose NA:GLA treatments contained 7 animals. Four rats received high dose NA:GLA and 3 rats were dosed with NA:DHA.
# [5] = Nervonic acid composition of total polar lipid from mouse brain (Example 9); assay type: in vivo; conditions: CREAE-inoculated mice
# Experimental: (§3) Upon termination of certain biological evaluations, rat or mice brains were extracted and the fatty acid composition of total polar lipids from rat/mouse brain was determined.
# (§4) Biological material was sent for analysis to Dr J. Hendersen at the University of Stirling, Institute of Aquaculture, Scotland. Analyses were carried out on two batches of experiments (detailed respectively in Example 6 and Example 7).
# [6] = system: chronic EAE in the Biozzi mouse model; assay: NA:NA and NA:GLA in ethyl oleate in chronic relapsing EAE (Example 7); assay type: in vivo; conditions: for AG: Percentage of mice in the group / CFT: Percentage of mice in the group / CHLP: Percentage of mice in the group / HLH: Percentage of mice in the group / PFT: Percentage of mice in the group / PHLP: Percentage of mice in the group: ethyl oleate vehicle
# Experimental: as §1, §2
# [7] = Nervonic acid composition of total polar lipid from rat brain (Example 9); assay type: in vivo; conditions: after Example 6 treatments; NA:GLA at both low and high doses
# Experimental: as §3, §4
# [8] = acute phase, Miglyol 810 vehicle, 1000 mg/kg/day
# [9] = acute phase, Miglyol 810 vehicle, n=12, NA:GLA n=11
# [10] = relapse phase, Miglyol 810 vehicle, 1000 mg/kg/day
# [11] = relapse phase, Miglyol 810 vehicle, NA:GLA n=9, NA:NA n=11
# [12] = Biozzi mouse, 10% w/w in ethyl oleate, 1000 mg/kg body weight/day
# [13] = acute phase, Biozzi mouse, 10% w/w in ethyl oleate, 1000 mg/kg body weight/day
# [14] = relapse phase, Biozzi mouse, 10% w/w in ethyl oleate, 1000 mg/kg body weight/day
smiles,measurement,setting,value
"CCCCC/C=C\C/C=C\C/C=C\CCCCC(=O)OCCCOC(=O)CCCC/C=C\C/C=C\C/C=C\CCCCC [GLA:GLA, 1,3-Di(z,z,z-6,9,12-Octadecatrienoyloxy)propane]",evidence of diarrhea (absence of toxicity),[1],without evidence of diarrhea
"CCCCC/C=C\C/C=C\C/C=C\CCCCC(=O)OCCCOC(=O)CCCCCCCCCCCCC/C=C\CCCCCCCC [NA:GLA, 1-(z-15-tetracosenoyloxy)-3-(z,z,z-6,9,12-octadecatrienoyloxy)propane]",effect on the neurological course of CREAE,"[2]; Biozzi mouse, Miglyol 810 vehicle, 1000 mg/kg/day",clearly reduced the intensity of neurological deficits during both acute and relapsing phases
same,No. of diseased mice,"[2]; acute phase, Biozzi mouse, Miglyol 810 vehicle (90% dilution), 1000 mg/kg/day, up to 43 days PI",10/11
same,Mean day of symptom loss,[2]; [8],25.9 ± 2.0 days
same,Mean day of symptom onset,[2]; [8],17.9 ± 2.6 days
same,Mean duration of symptoms,[2]; [8],6.9 ± 3.0 days
same,Number of dead mice,[2]; [8],1/11
same,AG: Percentage of mice in the group,[2]; [9],73%
same,CFT: Percentage of mice in the group,[2]; [9],82%
same,CHLP: Percentage of mice in the group,[2]; [9],36%
same,D (dead): Percentage of mice in the group,[2]; [9],9%
same,HLH: Percentage of mice in the group,[2]; [9],73%
same,IRR: Percentage of mice in the group,[2]; [9],82%
same,M (moribund): Percentage of mice in the group,[2]; [9],0%
same,PFT: Percentage of mice in the group,[2]; [9],91%
same,PHLP: Percentage of mice in the group,[2]; [9],46%
same,D (dead): Percentage of mice in the group,"[2]; mouse, in vivo",22%
same,M (moribund): Percentage of mice in the group,"[2]; mouse, in vivo",11%
same,Mean day of symptom loss,[2]; [10],39.8 ± 5.0 days
same,Mean day of symptom onset,[2]; [10],33.1 ± 4.9 days
same,Mean duration of symptoms,[2]; [10],7.0 ± 4.2 days
same,No. of diseased mice,[2]; [10],8/9
same,Number of dead mice,[2]; [10],3/9
same,AG: Percentage of mice in the group,[2]; [11],56%
same,CFT: Percentage of mice in the group,[2]; [11],67%
same,CHLP: Percentage of mice in the group,[2]; [11],44%
same,HLH: Percentage of mice in the group,[2]; [11],56%
same,IRR: Percentage of mice in the group,[2]; [11],67%
same,PFT: Percentage of mice in the group,[2]; [11],89%
same,PHLP: Percentage of mice in the group,[2]; [11],56%
same,miscibility of compositions with vehicle,[3],miscible in all proportions at room temperature
same,CHLP: Number of animals showing symptoms/total,[4]; 750 mg/kg/day,3/7
same,FT: Number of animals showing symptoms/total,[4]; 750 mg/kg/day,7/7
same,HLH: Number of animals showing symptoms/total,[4]; 750 mg/kg/day,7/7
same,PHLP: Number of animals showing symptoms/total,[4]; 750 mg/kg/day,4/7
same,CHLP: Number of animals showing symptoms/total,[4]; 1000 mg/kg/day,1/4
same,FT: Number of animals showing symptoms/total,[4]; 1000 mg/kg/day,4/4
same,HLH: Number of animals showing symptoms/total,[4]; 1000 mg/kg/day,4/4
same,PHLP: Number of animals showing symptoms/total,[4]; 1000 mg/kg/day,2/4
same,"effect on onset, incidence and severity of disease","[4]; 750 and 1000 mg/Kg body weight/day, compared to control groups",delayed the onset and clearly reduced the incidence and severity of disease
same,animals that experienced CHLP,[4]; high dose,25%
same,animals that experienced PHLP,[4]; high dose,50%
same,mean cumulative clinical scores,[4]; low and high dose (750 and 1000 mg/kg/day),consistently lower than control values
same,animals that experienced CHLP,[4]; low dose,43%
same,animals that experienced PHLP,[4]; low dose,57%
same,Mean day of final symptom loss (±SD),[4]; neat oil oral 750 mg/kg/day,19.0 ± 0.8 days
same,Mean day of symptom onset (±SD),[4]; neat oil oral 750 mg/kg/day,11.3 ± 0.8 days
same,Number of dead/total,[4]; neat oil oral 750 mg/kg/day,0/7
same,Number diseased/total,[4]; neat oil oral 750 mg/kg/day,7/7
same,Mean day of final symptom loss (±SD),[4]; neat oil oral 1000 mg/kg/day,18.8 ± 1.3 days
same,Mean day of symptom onset (±SD),[4]; neat oil oral 1000 mg/kg/day,11.3 ± 0.5 days
same,Number of dead/total,[4]; neat oil oral 1000 mg/kg/day,0/4
same,Number diseased/total,[4]; neat oil oral 1000 mg/kg/day,4/4
same,NA levels in mouse brain lipids compared to undosed and vehicle,[5],enhancement of the NA levels in brain lipids
same,Acute and relapse symptoms (mean neurological scores),[6]; [12],markedly reduced
same,onset of relapse,[6]; [12],"delayed, but not significantly"
same,Mean day of symptom loss,[6]; [13],30.0 ± 1.4 days
same,Mean day of symptom onset,[6]; [13],21.7 ± 4.2 days
same,Mean duration of symptoms,[6]; [13],5.7 ± 1.5 days
same,Number of dead mice,[6]; [13],0/10
same,No. of diseased mice,"[6]; acute phase, Biozzi mouse, […], oral 1000 mg/kg body weight/day, 5 days prior to inoculation and 43 days PI, n=10",3/10
same,AG: Percentage of mice in the group,"[6]; acute phase, n=10",20%
same,CFT: Percentage of mice in the group,"[6]; acute phase, n=10",20%
same,CHLP: Percentage of mice in the group,"[6]; acute phase, n=10",20%
same,HLH: Percentage of mice in the group,"[6]; acute phase, n=10",30%
same,PFT: Percentage of mice in the group,"[6]; acute phase, n=10",20%
same,PHLP: Percentage of mice in the group,"[6]; acute phase, n=10",20%
same,Mean day of symptom onset,[6]; [14],42.0 ± 1.0 days
same,No. of diseased mice,[6]; [14],3/10
same,Number of dead mice,[6]; [14],0/10
same,AG: Percentage of mice in the group,"[6]; relapse phase, n=10",10%
same,CFT: Percentage of mice in the group,"[6]; relapse phase, n=10",10%
same,CHLP: Percentage of mice in the group,"[6]; relapse phase, n=10",0%
same,HLH: Percentage of mice in the group,"[6]; relapse phase, n=10",30%
same,PFT: Percentage of mice in the group,"[6]; relapse phase, n=10",10%
same,PHLP: Percentage of mice in the group,"[6]; relapse phase, n=10",0%
same,"NA levels in rat brain lipids compared to normal, undosed and vehicle treated animals",[7],marked increase of NA levels
